Source: patent US20250129430A1, “HIGH ATP-AFFINITY PROTEIN AS THERAPEUTIC TARGET FOR INTRACTABLE CANCER MOLECULAR SUBTYPES AND INHIBITOR THEREOF” (VeraVerse Co., Ltd., priority 2021, published 2025)

How the values were obtained:
Assay in all cases: Cell viability drug screen, 12-point dose-response AUC
Format in all cases: cell-based, human
AGS = AGS cells (non-SEM subtype); 72 hours
Experimental: (§1) An FDA-approved small-molecule pharmacological compound (#L1300) and an anticancer compound for research (#L2000) were purchased from Selecckchem and a 10 mM solution was prepared in DMSO. A total of 1,345 compounds were tested the cell viability of the seven EMT gastric cancer cell lines.
(§2) Cells cultured for cell-based drug assay were inoculated into a 96-well white optical plate (Corning) at 5×10^3 cells per well. After 24 hours after inoculation, a 2.5 MJT (primary screen) or a half-log 12-serial diluent (secondary screen) of the pharmacological compound contained in DMSO is added to the cells with a robot using a BioMek FXp liquid processor (Beckman) to add to the cells at 50 mM. The final drug concentration in the 5 ns range and the DMSO specification control (0.5%) were calculated. The cells were then further incubated at 37° C. in a 5% CO2 incubator for 72 hours prior to measuring cell viability using the extra-GLO assay kit (Promega). The luminescent properties were measured after 15 min incubation at room temperature using a plate stacker equipped with a plate stacker. The normalized viability for the DMSO-based control was measured to generate a cell line-specific 12-point dose-response curve for each pharmacological compound, and then the area under the curve (AUC) was calculated using a trapezoidal method. […] The results of the repeated experiments were averaged to generate AUC values for each cell line for each compound.

Hs746T = Hs746T cells (SEM subtype); 72 hours
Experimental: as §1, §2

KATO3 = KATO3 cells; 72 hours
Experimental: as §1, §2

MKN1 = MKN1 cells; 72 hours
Experimental: as §1, §2

MKN28 = MKN28 cells; 72 hours
Experimental: as §1, §2

MKN45 = MKN45 cells (non-SEM subtype); 72 hours
Experimental: as §1, §2

MKN74 = MKN74 cells; 72 hours
Experimental: as §1, §2

NCC19 = NCC19 cells; 72 hours
Experimental: as §1, §2

NCC20 = NCC20 cells; 72 hours
Experimental: as §1, §2

NCC24 = NCC24 cells; 72 hours
Experimental: as §1, §2

NCC59 = NCC59 cells; 72 hours
Experimental: as §1, §2

NCI_N87 = NCI_N87 cells; 72 hours
Experimental: as §1, §2

OCUM1 = OCUM1 cells; 72 hours
Experimental: as §1, §2

SK4 = SK4 cells (SEM subtype); 72 hours
Experimental: as §1, §2

SNU16 = SNU16 cells; 72 hours
Experimental: as §1, §2

SNU1750 = SNU1750 cells (SEM subtype); 72 hours
Experimental: as §1, §2

SNU1967 = SNU1967 cells; 72 hours
Experimental: as §1, §2

SNU1 = SNU1 cells; 72 hours
Experimental: as §1, §2

SNU216 = SNU216 cells (non-SEM subtype); 72 hours
Experimental: as §1, §2

SNU484 = SNU484 cells (SEM subtype); 72 hours
Experimental: as §1, §2

SNU601 = SNU601 cells; 72 hours
Experimental: as §1, §2

SNU620 = SNU620 cells; 72 hours
Experimental: as §1, §2

SNU638 = SNU638 cells; 72 hours
Experimental: as §1, §2

SNU668 = SNU668 cells (SEM subtype); 72 hours
Experimental: as §1, §2

SNU719 = SNU719 cells; 72 hours
Experimental: as §1, §2

YCC11 = YCC11 cells (SEM subtype); 72 hours
Experimental: as §1, §2

YCC2 = YCC2 cells; 72 hours
Experimental: as §1, §2

YCC3 = YCC3 cells; 72 hours
Experimental: as §1, §2

FU97 = tested on: FU97; parameters: Average Area Under the Viability Curve (AUC), AUC norm value: scale not given here; conditions: FU97 cells; 72 hours
Experimental: Cells cultured for cell-based drug assay were inoculated into a 96-well white optical plate (Corning) at 5×10^3 cells per well. After 24 hours after inoculation, a 2.5 MJT (primary screen) or a half-log 12-serial diluent (secondary screen) of the pharmacological compound contained in DMSO is added to the cells with a robot using a BioMek FXp liquid processor (Beckman) to add to the cells at 50 mM. The final drug concentration in the 5 ns range and the DMSO specification control (0.5%) were calculated. The cells were then further incubated at 37° C. in a 5% CO2 incubator for 72 hours prior to measuring cell viability using the extra-GLO assay kit (Promega). The luminescent properties were measured after 15 min incubation at room temperature using a plate stacker equipped with a plate stacker. The normalized viability for the DMSO-based control was measured to generate a cell line-specific 12-point dose-response curve for each pharmacological compound, and then the area under the curve (AUC) was calculated using a trapezoidal method.

Structure (SMILES) | Average Area Under the Viability Curve (AUC), AUC norm value (AGS) | Average Area Under the Viability Curve (AUC), AUC norm value (Hs746T) | Average Area Under the Viability Curve (AUC), AUC norm value (KATO3) | Average Area Under the Viability Curve (AUC), AUC norm value (MKN1) | Average Area Under the Viability Curve (AUC), AUC norm value (MKN28) | Average Area Under the Viability Curve (AUC), AUC norm value (MKN45) | Average Area Under the Viability Curve (AUC), AUC norm value (MKN74) | Average Area Under the Viability Curve (AUC), AUC norm value (NCC19) | Average Area Under the Viability Curve (AUC), AUC norm value (NCC20) | Average Area Under the Viability Curve (AUC), AUC norm value (NCC24) | Average Area Under the Viability Curve (AUC), AUC norm value (NCC59) | Average Area Under the Viability Curve (AUC), AUC norm value (NCI_N87) | Average Area Under the Viability Curve (AUC), AUC norm value (OCUM1) | Average Area Under the Viability Curve (AUC), AUC norm value (SK4) | Average Area Under the Viability Curve (AUC), AUC norm value (SNU16) | Average Area Under the Viability Curve (AUC), AUC norm value (SNU1750) | Average Area Under the Viability Curve (AUC), AUC norm value (SNU1967) | Average Area Under the Viability Curve (AUC), AUC norm value (SNU1) | Average Area Under the Viability Curve (AUC), AUC norm value (SNU216) | Average Area Under the Viability Curve (AUC), AUC norm value (SNU484) | further results
O=C(/C=C/c1cccnc1)NCCCCC1CCN(C(=O)c2ccccc2)CC1 [APO866 (FK866), APO866] | 0 | −4.382 | 1.553 | −5.502 | −6.855 | 0.6191 | −6.53 | −4.01 | 2.35 | −0.07585 | 0.7919 | 0.8343 | 0.949 | 0.7403 | −4.562 | −3.767 | −3.653 | 0.9726 | −5.897 | −6.823 | Average Area Under the Viability Curve (AUC), AUC norm value (SNU601): 4.976; Average Area Under the Viability Curve (AUC), AUC norm value (SNU620): 0.3488; Average Area Under the Viability Curve (AUC), AUC norm value (SNU638): 0.6032; Average Area Under the Viability Curve (AUC), AUC norm value (SNU668): −3.304; Average Area Under the Viability Curve (AUC), AUC norm value (SNU719): 1.275; Average Area Under the Viability Curve (AUC), AUC norm value (YCC11): −2.215; Average Area Under the Viability Curve (AUC), AUC norm value (YCC2): 1.331; Average Area Under the Viability Curve (AUC), AUC norm value (YCC3): 1.423; Average Area Under the Viability Curve (AUC), AUC norm value (FU97): −3.149
O=C(Nc1c[nH]nc1-c1nc2ccc(CN3CCOCC3)cc2[nH]1)NC1CC1 [AT9283] | −0.9303 | 0.9084 | 0.5115 | −2.315 | −1.903 | −0.1996 | 0.4728 | 2.247 | −2.941 | −0.6909 | 0.5882 | 0.1418 | 0 | −0.4441 | −3.809 | −1.7502 | −0.1244 | −3.743 | 0.5323 | −1.872 | Average Area Under the Viability Curve (AUC), AUC norm value (SNU601): 1.648; Average Area Under the Viability Curve (AUC), AUC norm value (SNU620): −4.059; Average Area Under the Viability Curve (AUC), AUC norm value (SNU638): −0.01142; Average Area Under the Viability Curve (AUC), AUC norm value (SNU668): 0.6968; Average Area Under the Viability Curve (AUC), AUC norm value (SNU719): 3.019; Average Area Under the Viability Curve (AUC), AUC norm value (YCC11): −1.467; Average Area Under the Viability Curve (AUC), AUC norm value (YCC2): 0.07527; Average Area Under the Viability Curve (AUC), AUC norm value (YCC3): 0.6619
Cc1ccc(C(=O)N(CCCN)[C@@H](c2nc3cc(Cl)ccc3c(=O)n2Cc2ccccc2)C(C)C)cc1 [Ispinesib (SB-715992), Ispinesib] | −2.131 | 1.046 | 2.999 | −1.178 | −1.956 | 1.833 | 0 | 1.111 | −0.9939 | −0.8348 | 2.6543 | −0.0052 | 1.297 | −0.8267 | −1.935 | 0.2265 | 1.562 | −1.68 | 1.801 | −0.9509 | Average Area Under the Viability Curve (AUC), AUC norm value (SNU601): −1.371; Average Area Under the Viability Curve (AUC), AUC norm value (SNU620): −1.255; Average Area Under the Viability Curve (AUC), AUC norm value (SNU638): −0.203; Average Area Under the Viability Curve (AUC), AUC norm value (SNU668): 0.1001; Average Area Under the Viability Curve (AUC), AUC norm value (SNU719): 2.542; Average Area Under the Viability Curve (AUC), AUC norm value (YCC11): −1.381; Average Area Under the Viability Curve (AUC), AUC norm value (YCC2): 0.7987; Average Area Under the Viability Curve (AUC), AUC norm value (YCC3): 2.007
